Reference: patent publication US20190046600A1, “COMPOSITIONS AND USES THEREOF” (priority 2016, published 2019)
Square brackets hold non-standard residues; d marks the D form. Peptide text beside a SMILES is read from it. Phe(4-guanidino) = N=C(N)Nc1ccc(C[C@H](N)C(=O)O)cc1

Legend:
[1] = biological target: T1, recombinant human caspase 3 (Homo sapiens, UniProt P42574); assay: Apo-ONE Homogeneous Caspase-3/7 assay with recombinant caspase-3; assay type: biochemical; details: 0.1 or 0.3 U enzyme
T1 construct: purchased Enzo Life Sciences BML-SE169-5000
T1 sequence (P42574 29-175 limits assumed): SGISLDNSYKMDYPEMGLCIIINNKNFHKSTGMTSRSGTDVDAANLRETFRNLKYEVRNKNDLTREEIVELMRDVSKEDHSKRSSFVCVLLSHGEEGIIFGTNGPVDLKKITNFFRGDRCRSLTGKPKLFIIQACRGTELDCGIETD
T1 sequence (P42574 176-277 limits assumed): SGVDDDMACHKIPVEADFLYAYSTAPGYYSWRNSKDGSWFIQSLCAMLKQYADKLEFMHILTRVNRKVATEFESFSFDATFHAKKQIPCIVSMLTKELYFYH
Description: DEVD-CHO was used as a positive control.
The Promega kit consists of a buffer that supports caspase 3/7 enzymatic activity and the caspase-3/7 substrate rhodamine 110, bis-(N-CBZL-aspartyl-L-glutamyl-L-valyl-L-aspartic acid amide; Z-DEVD-R110) Z-DEVD-R110 exists as a pro-fluorescent substrate prior to the assay;
upon sequential cleavage and removal of the DEVD peptides by caspase-3/7 activity and excitation at 499 nm, the rhodamine 110 leaving group becomes fluorescent. The amount of fluorescent product generated is reported to be proportional to the amount of caspase-3/7 cleavage that occurs in the sample.
In all subsequent experiments, 0.1 U enzyme was used and plate reader settings were adjusted to read every 5 min for 2h.
The DEVD-CHO control or HILR-030 were co-incubated for 2 hours with substrate or human recombinant caspase-3 according to the protocol in the table below.

NCI-H460 cells = details: NCI-H460, 96 hours with compound, alamarBlue
Description: Methods measuring cell viability include the use of alamarBlue® cell viability reagent (Life Technologies, Inc.) (resazurin) with fluorescence detection.
1) NCI-H460 cells were grown in Ham's F12 media supplemented with 10% FBS. 2) Cells were harvested and seeded into 96-well plates at 500 cells/well. 3) Compounds were made up from stock solutions and added directly to cells in doubling dilutions starting at 200 μM. Final DMSO concentration was 0.2%. 4) Cells were grown with compound for 96 hours at 37° C. 5% CO2 in a humidified atmosphere. 5) A resazurin dye composition (AlamarBlue® cell viability reagent (Life Technologies, Inc.)) 10% (v/v) was then added and incubated for a further 4 hours, and fluorescent product detected using the BMG FLUOstar plate reader. 6) Media only background readings were subtracted before data were analysed using a 4-parameter logistic equation in GraphPad Prism.

[2] = test system: Lactate Dehydrogenase A [LDHA]; assay: LDH activity assay on lysates of treated NCI-H460 cells (Abcam ab102526); assay type: cell-based, human; details: NCI-H460 cells treated 24 h or 96 h, normalised to protein; read-out: IC50 for inhibiting the activity of LDH
Description: An LDH activity assay was conducted on samples derived from NCI-H460 cells treated with 2 test compounds (HILR-025 and HILR-030) for either 24h or 96h. […] Therefore a BCA assay was conducted to estimate the total amount of protein present in each LDH assay lysate and this was used to normalise the enzyme activity data. As an indication of cell viability, an Alamar blue assay was also carried out at both timepoints, to serve as an additional point of reference.
2) Cells were harvested and seeded into 96-well plates at either 500 cells/well (for the 96h timepoint) or 5000 cells/well for the 24h timepoint. […] 6) At the end of the assay (24 or 96h), Alamar blue 10% (v/v) was added to one set of plates, incubated for a further 4 hours, and fluorescent product detected using the BMG FLUOstar plate reader. […] 10) LDH activity was measured in the cleared lysates using an LDH activity kit (Abcam, ab102526). 11) After preparation of the LDH activity assay reactions, according to the manufacturer's instructions, absorbance at 450 nm was measured at the initial time to determine (A450)initial 12) Further absorbance readings were taken at 3 minute intervals for up to 15 minutes. […] 16) The LDH activity of each sample was determined by the following equation:
[formula] […] Protein content in remaining cleared lysates was determined using a BCA assay (ThermoScientific). • b. Data were analysed using GraphPad Prism. […]

`CC(C)[C@@H]1NC(=O)[C@@H]2CCCN2C(=O)[C@H](CCCNC(=N)N)NC(=O)[C@@H]2CCCN2C(=O)CNC(=O)[C@H](CCCNC(=N)N)NC(=O)[C@@H]2CCCN2C(=O)[C@H](Cc2c[nH]c3ccccc23)NC(=O)[C@H](Cc2c[nH]c3ccccc23)NC(=O)[C@H](Cc2ccc(NC(=N)N)cc2)NC(=O)[C@H](Cc2ccc(NC(=N)N)cc2)NC(=O)[C@H](Cc2c[nH]c3ccccc23)NC(=O)[C@H](Cc2c[nH]c3ccccc23)NC(=O)[C@H](Cc2ccc(NC(=N)N)cc2)NC(=O)[C@H](Cc2ccc(NC(=N)N)cc2)NC(=O)[C@H](Cc2c[nH]c3ccccc23)NC(=O)[C@H](Cc2c[nH]c3ccccc23)NC1=O` [HILR-030] (cyclo(PRGPRPVWW[Phe(4-guanidino)][Phe(4-guanidino)]WW[Phe(4-guanidino)][Phe(4-guanidino)]WW)) was tested, and the caspase-3 activity [1] was “inhibited the caspase-3 activity in a dose-dependent fashion”, the IC50 (NCI-H460 cells) was 6 µM and the IC50 [2] was 22 µM.
